The METLIN SMRT retention time set (Domingo-Almenara et al. 2019)

Assay: gradient 5% acetonitrile 3 min, to 50% in 2 min, to 85% in 15 min, held 3 min, 100 µL/min
Conditions: column: Zorbax Extend-C18 2.1 x 50 mm; eluents: water / acetonitrile, 0.1% formic acid
Summary of the method: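 Data were gathered over 3 months by HPLC coupled to a quadrupole time-of-flight mass spectrometer, operated in positive and negative ionization mode. Mixtures of ~100 pure standards ran on a Zorbax Extend-C18 column (2.1 × 50 mm, 1.8 μm) at 100 μL/min, with water and acetonitrile each containing 0.1% formic acid and dead and dwell volumes of 40 μL and 900 μL. Retention time was read from adduct peaks picked by computer and checked manually.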

Row | Compound | RP-LC retention time [s]
1 | CCOc1ccc(Nc2c(-c3nc(C)no3)cnc3nc(C)ccc23)cc1 | 778
2 | COc1cccc(NC(=O)Cn2nc3c(Oc4ccc(F)cc4)nccn3c2=O)c1 | 812
3 | CC(=O)c1ccc(NC(=O)CCn2nc(C)nc2C)cc1 | 557
4 | COc1ccccc1OCc1nc(-c2ccc3ncn(C(C)C)c3c2)no1 | 729
5 | O=C(NCCc1ccco1)C1CCCN(c2nc3ccccc3n(Cc3ccccc3)c2=O)C1 (centres undefined) | 1090
6 | CC1CCc2onc(C(=O)N3CCN(Cc4ccc5c(c4)OCO5)CC3)c2C1 (centres undefined) | 667
7 | CC1CCN(c2cc(-c3noc(C(=O)NC4CCCCCC4)n3)ccn2)CC1 | 1010
8 | CCCN1C(=O)C2CCC(=O)N2c2ccc(C(=O)N3CCN(CC)CC3)cc21 (centres undefined) | 561
9 | CN1C(=O)c2cccnc2Sc2cc(C(=O)NCc3ccc(Cl)cc3)ccc21 | 812
10 | Cc1nn(-c2cc(N3CCCCC3)ncn2)c(C)c1CCC(=O)Nc1ccc2c(c1)OCO2 | 921
11 | COc1cc(Cl)c(NC(=O)C2CCCN(C(=O)c3cc(-c4ccncc4)n[nH]3)C2)c(OC)c1 (centres undefined) | 642
12 | COc1ccc(-c2nnc(-c3ccc(-n4ccnc4)nc3)o2)cc1 | 654
13 | CCOCC(=O)NCCNC(=O)c1ccc(NC(C)=O)cc1 | 570
14 | CCn1cnc(S(=O)(=O)N2CCC(C(=O)N3CCN(c4cccc(C(F)(F)F)c4)CC3)CC2)c1 | 868
15 | CCc1nc(N)n(CC(=O)Nc2cc(C)ccc2C)c(=O)c1C | 643
16 | COc1ccc(N2CCN(CCCNC(=O)NC3COc4ccc(OC)cc4C3)CC2)cc1 (centres undefined) | 687
17 | CCCCNC(=O)Cn1nc(C)c2nn(-c3ccc(Cl)cc3)c(-n3cccc3)c2c1=O | 1020
18 | O=C(NC1CCCC1)c1cccnc1N1CCSCC1 | 735
19 | CCc1ccccc1Nc1nc(-c2ccc(Cl)cc2)cs1 | 1310
20 | COc1cccc(S(=O)(=O)N2CCC(n3cnnc3C3CC3)CC2)c1 | 695
21 | Cc1nc(-c2csc(S(=O)(=O)N3CCCC(C(=O)Nc4cccc(Cl)c4C)C3)c2)no1 (centres undefined) | 1020
22 | O=C(c1ccc(F)c(F)c1)N1CCN(c2cc(-c3cccnc3)[nH]n2)CC1 | 615
23 | CCNC(=O)c1cc(=O)[nH]c2c(C)cccc12 | 793

Row | Compound | RP-LC retention time [s]
24 | CC1(C)CC(=O)C2=C(C1)Nc1ccccc1N(CC(=O)Nc1ccccc1)C2c1ccc(F)cc1 (centres undefined) | 938
25 | Cn1c(=O)n(C)c2cc(S(=O)(=O)c3ccc(F)cc3)c(NC(=O)c3ccccc3F)cc21 | 882
26 | Cc1ccc(C)c(C(=O)N2CCN(c3nc4cccnc4o3)CC2)c1 | 765
27 | CN(C)c1cccc(C(=O)N2CCN(C(=O)C3CC3c3ccc4c(c3)OCO4)CC2)c1 (centres undefined) | 715
28 | O=C(c1ccco1)N1CCCCC1c1nc(C2CC2)n[nH]1 (centres undefined) | 625
29 | Cc1cc(C)cc(OCC(=O)N(Cc2ccc(Br)o2)C2CCS(=O)(=O)C2)c1 (centres undefined) | 966
30 | CCCc1nc(-c2c(C)cc(C)nc2NC(=O)c2cccc(Cl)c2)no1 | 986
31 | CNC(=O)c1cccc2c1CCN2C(=O)Nc1ccc(C)cc1 | 747
32 | COc1ccccc1NC(=O)N1CCN(Cc2nc3cccnc3n2-c2ccccc2)CC1 | 661
33 | O=c1c2cc3c(cc2nc(SCc2nc(-c4ccc(F)cc4)no2)n1Cc1ccccc1)OCO3 | 1200
34 | O=C(Nc1c(F)cccc1F)N1CC(c2nc(Cc3ccccc3)no2)C1 | 753
35 | Cc1cc(C)cc(C(=O)N2CCC3(CC2)NC(=O)c2cc(C)ccc2N3C)c1 | 852
36 | O=C1N(CN2CCN(c3ccccn3)CC2)c2ccccc2C12OCCCO2 | 572
37 | CCc1nc(N)n(CC(=O)Nc2ccc(OC)cc2)c(=O)c1C | 650
38 | COc1cccc(-c2nc(-c3cn(-c4cccc(Cl)c4)nn3)no2)c1 | 1140
39 | CCNC(=O)C1CCN(c2nc3ccc(-c4ccsc4)nc3s2)CC1 | 799
40 | Cc1ccc2[nH]cc(CCN3CC(C(=O)Nc4cccc(Br)c4)CC3=O)c2c1 (centres undefined) | 911
41 | O=C(Nc1ccccc1)C1CCCN(S(=O)(=O)Cc2ccccc2Cl)C1 (centres undefined) | 976
42 | Cc1cc(C)n(-c2ccnc(N3CCC(C(=O)N4CCC5(CC4)OCCO5)CC3)n2)n1 | 712
43 | CCc1nnc(-c2ccc(NC(=O)c3ccc(S(=O)(=O)N(CC)CC)cc3)cc2)o1 | 826
44 | Cc1cc(F)ccc1N1C(=O)CN(S(C)(=O)=O)CC1(C)C(=O)NC1CCCCC1 (centres undefined) | 822
45 | COc1ccc(-c2nnc(SCc3cc(=O)n4c(C)csc4n3)o2)cc1OC | 762
46 | O=C(CC1CCN(S(=O)(=O)c2ccccc2)CC1)N1CCN(c2ccccn2)CC1 | 625

Row | Compound | RP-LC retention time [s]
47 | Cc1ccc(CNC(=O)C2CCCN(c3cc(=O)n(C)c(=O)n3C)C2)cc1 (centres undefined) | 701
48 | CC(NC(=O)c1ccco1)c1nc(-c2ccc(Oc3ccccc3)cc2)no1 (centres undefined) | 1030
49 | O=C(NC1CCCCC1)C1CCCN(c2nc3ccsc3c(=O)n2Cc2ccccc2)C1 (centres undefined) | 957
50 | CCOc1ccc(NS(=O)(=O)c2cc(-c3nc(C(C)(C)C)cs3)cs2)cc1 | 1240
51 | COCCn1c(C(CNc2cccc(C)c2)CC(=O)O)nc2ccccc21 (centres undefined) | 620
52 | CCOc1ccc(CNC(=O)Cn2cnc3onc(C)c3c2=O)cc1 | 755
53 | CCc1csc(-c2ccc(N3CCN(C(=O)c4ccc(Cl)nc4)CC3)nc2)n1 | 832
54 | CCN1c2ccccc2C(=O)NC12CCN(C(=O)Nc1ccc(OC)cc1)CC2 | 735
55 | CC1CCc2nn(CC(=O)Nc3cc(F)ccc3F)cc2C1 (centres undefined) | 983
56 | Cc1nn(C)c2nc(OC(C)C(=O)NCc3ccccc3Cl)cc(C(F)(F)F)c12 (centres undefined) | 1020
57 | Cc1ccc(CNC(=O)Cn2nc(C(=O)N3CCOCC3)c3ccccc32)cc1 | 753
58 | Cc1cc(=O)n2c(-c3ccc(NC(=O)C(C)Oc4ccc5c(c4)OCO5)cc3)csc2n1 (centres undefined) | 757
59 | O=C(Cc1cccs1)N1CCc2[nH]cnc2C1c1ccccc1 (centres undefined) | 612
60 | Cc1ccccc1CNC(=O)C1c2ccccc2CC(=O)N1C (centres undefined) | 755
61 | CCOC(=O)c1cc(S(=O)(=O)N2CCCC2C(=O)Nc2ccc(NC(C)=O)cc2)cn1C (centres undefined) | 718
62 | COc1ccc(C(=O)N2CCC(n3c(-c4ccco4)nc4cccnc43)C2)cc1OC (centres undefined) | 644
63 | Cc1ccc(C)n1-c1nnc(N2CCCC(C(=O)NC3CC3)C2)s1 (centres undefined) | 780
64 | Cc1cc(Cl)ccc1NC(=O)c1cn(C)c2ncccc12 | 827
65 | CCOc1ccc2ncc(C(=O)c3ccc(OC)cc3)c(N3CCN(C)CC3)c2c1 | 599
66 | CC(C)CNC(=O)N1CCC(CCOc2ccncc2)CC1 | 594
67 | CCN1C(=O)C(C)(C(=O)NCc2ccccc2Cl)Oc2cccnc21 (centres undefined) | 890
68 | CCCNC(=O)c1nc2cccnc2n(C)c1=O | 647
69 | CC(C)CC(=O)Nc1ccc(-c2nc(-c3ccc(F)cc3)no2)cc1 | 1170

Row | Compound | RP-LC retention time [s]
70 | Cc1nc2c(n1C)CN(C(=O)Cc1ccc(F)cc1)CC2 | 582
71 | COc1ccc(CNC(=O)C2c3ccccc3CC(=O)N2C)cc1 (centres undefined) | 711
72 | Cc1nn2c(CNS(=O)(=O)c3cccc(F)c3)c(-c3ccccc3)nc2s1 | 852
73 | CC1CCN(S(=O)(=O)c2ccc3nn(CC(=O)OC(C)(C)C)c(=O)n3c2)CC1 | 999
74 | CCCCOc1ccc(CNC(=O)C2CCCN(C(=O)c3[nH]c(C)c(C(=O)OC)c3C)C2)cc1 (centres undefined) | 930
75 | CC1=C(c2ccc(C)cc2)S(=O)(=O)N=C1N1CCC(NC(=O)c2cc(C)n(C)n2)CC1 | 769
76 | CCOc1nc2ccccc2nc1N1CCCC(C(=O)Nc2ccc(F)cc2F)C1 (centres undefined) | 1220
77 | Cn1ncc2c3ccccc3n(CCCC(=O)NCCN3CCCCC3)c2c1=O | 618
78 | O=C(c1cccc(Cl)c1)N1N=C(c2ccco2)CC1c1ccco1 (centres undefined) | 1020
79 | O=C(O)Cc1csc(NC(=O)C2CCC(=O)N2)n1 (centres undefined) | 528
80 | CCOc1cccc(CNC(=O)c2c(O)c3cccnc3[nH]c2=O)c1 | 969
81 | CCOC(=O)C1=C(CNc2ccc(C(F)(F)F)cc2)NC(=O)NC1c1ccc2c(c1)OCO2 (centres undefined) | 966
82 | Cc1ccc(S(=O)(=O)N2CCOCC2)cc1-c1nnc(-c2ccccc2)o1 | 919
83 | CCOC(=O)c1ccc2nc(C)cc(NC(=O)c3cccs3)c2c1 | 607
84 | CCN1C(=O)COc2ccc(-c3noc(-c4cccc(Cl)c4)n3)cc21 | 1250
85 | O=C(NCCC1=CCCCC1)C(=O)NCCN1CCN(c2ccc(F)cc2)CC1 | 633
86 | COc1ccc(-n2cc(C(=O)OCCc3ccccn3)c3cc(OC)c(OC)cc3c2=O)cc1 | 681
87 | Cc1cccc(CCNC(=O)Cc2csc3nc(-c4ccccc4)cn23)c1 | 810
88 | CCOc1ccc(-n2cc(C(=O)OC(C)C)c3ccccc3c2=O)cc1 | 1220
89 | COc1ccc(-n2c(=O)n(C)c(=O)c3cc(C(=O)Nc4cccc(OC)c4)cnc32)cc1 | 1020
